Among the data in patent publication US10206394B2, “Herbicidal compounds” (Syngenta Participations AG, priority 2014, dated 2019) are pest or weed control values, retold here.

Where two headings read alike, the source gives them in different places.

Holding throughout (experiment): Glasshouse assay for herbicidal activity (pre- and post-emergence), percentage phytotoxicity
What all share (format): in vivo

The subject of test [1] is Alopecurus myosuroides (ALOMY). The following applies: Alopecurus myosuroides. How it is done:
(§1) Test—Glasshouse Assay for Herbicidal Activity
(§2) Seeds of a variety of monocotyledonous and dicotyledonous test plants are sown in standard soil in pots. The plants are cultivated for one day (for pre-emergence (PRE)) or for about 12 days (for post-emergence (POST)) under controlled conditions in a glasshouse (warm climate species at 24/18° C., cool climate species at 20/16° C., both at day/night; 16 hours light; 65% humidity).
(§3) The test plants are then grown on, in a glasshouse (greenhouse) under controlled conditions (warm climate species at 24/18° C., cool climate species at 20/16° C., both at day/night; 16 hours light; 65% humidity) and are watered twice daily. 15 days after application of the test herbicide (15 DAA) (for post-emergence), and 20 days after application of the test herbicide (20 DAA) (for pre-emergence), the test plants are evaluated visually, and an assessed percentage phytotoxicity score is given for each herbicidal application on each plant species (with 100%=total damage to plant; 0%=no damage to plant).
(§4) The plant species tested are as follows: Alopecurus myosuroides (ALOMY), Avena fatua (AVEFA), Lolium perenne (LOLPE), Echinochloa crus-galli (ECHCG).

Test [2] concerns Avena fatua (AVEFA). The note with it: Avena fatua. How it is done: as §1, §2, §3, §4
Test [3] has as its system Echinochloa crus-galli (ECHCG). The note with it: Echinochloa crus-galli. How it is done: as §1, §2, §3, §4
The subject of test [4] is Lolium perenne (LOLPE). The following applies: Lolium perenne. How it is done:
as §1, §2, §3, §4

[5] abbreviates: post-emergence, 360 h, POST-emergence, rate 250 g/ha, visual score 15 DAA (100%=total damage, 0%=no damage), read-out: Post-emergence herbicidal activity (percentage phytotoxicity) ALOMY POST.
Where [6] appears, read: pre-emergence, 480 h, PRE-emergence, rate 250 g/ha, visual score 20 DAA (100%=total damage, 0%=no damage), read-out: Pre-emergence herbicidal activity (percentage phytotoxicity) ALOMY PRE.
Setting [7] is: post-emergence, 360 h, POST-emergence, rate 250 g/ha, visual score 15 DAA (100%=total damage, 0%=no damage), read-out: Post-emergence herbicidal activity (percentage phytotoxicity) AVEFA POST.
The mark [8] stands for this setting: pre-emergence, 480 h, PRE-emergence, rate 250 g/ha, visual score 20 DAA (100%=total damage, 0%=no damage), read-out: Pre-emergence herbicidal activity (percentage phytotoxicity) AVEFA PRE.
Where [9] appears, read: post-emergence, 360 h, POST-emergence, rate 250 g/ha, visual score 15 DAA (100%=total damage, 0%=no damage), read-out: Post-emergence herbicidal activity (percentage phytotoxicity) ECHCG POST.
Setting [10] is: pre-emergence, 480 h, PRE-emergence, rate 250 g/ha, visual score 20 DAA (100%=total damage, 0%=no damage), read-out: Pre-emergence herbicidal activity (percentage phytotoxicity) ECHCG PRE.
Setting [11] is: post-emergence, 360 h, POST-emergence, rate 250 g/ha, visual score 15 DAA (100%=total damage, 0%=no damage), read-out: Post-emergence herbicidal activity (percentage phytotoxicity) LOLPE POST.
Setting [12] is: pre-emergence, 480 h, PRE-emergence, rate 250 g/ha, visual score 20 DAA (100%=total damage, 0%=no damage), read-out: Pre-emergence herbicidal activity (percentage phytotoxicity) LOLPE PRE.
[13] abbreviates: post-emergence, 360 h, Rate 250 g/ha, post-emergence, visual assessment 15 DAA, 100%=total damage, 0%=no damage, read-out: Post-emergence herbicidal activity (percentage phytotoxicity) ALOMY POST.
Where [14] appears, read: pre-emergence, 480 h, Rate 250 g/ha, pre-emergence, visual assessment 20 DAA, 100%=total damage, 0%=no damage, read-out: Pre-emergence herbicidal activity (percentage phytotoxicity) ALOMY PRE.
The mark [15] stands for this setting: post-emergence, 360 h, Rate 250 g/ha, post-emergence, visual assessment 15 DAA, 100%=total damage, 0%=no damage, read-out: Post-emergence herbicidal activity (percentage phytotoxicity) AVEFA POST.
The mark [16] stands for this setting: pre-emergence, 480 h, Rate 250 g/ha, pre-emergence, visual assessment 20 DAA, 100%=total damage, 0%=no damage, read-out: Pre-emergence herbicidal activity (percentage phytotoxicity) AVEFA PRE.
[17] abbreviates: post-emergence, 360 h, Rate 250 g/ha, post-emergence, visual assessment 15 DAA, 100%=total damage, 0%=no damage, read-out: Post-emergence herbicidal activity (percentage phytotoxicity) ECHCG POST.
Setting [18] is: pre-emergence, 480 h, Rate 250 g/ha, pre-emergence, visual assessment 20 DAA, 100%=total damage, 0%=no damage, read-out: Pre-emergence herbicidal activity (percentage phytotoxicity) ECHCG PRE.
The mark [19] stands for this setting: post-emergence, 360 h, Rate 250 g/ha, post-emergence, visual assessment 15 DAA, 100%=total damage, 0%=no damage, read-out: Post-emergence herbicidal activity (percentage phytotoxicity) LOLPE POST.
Where [20] appears, read: pre-emergence, 480 h, Rate 250 g/ha, pre-emergence, visual assessment 20 DAA, 100%=total damage, 0%=no damage, read-out: Pre-emergence herbicidal activity (percentage phytotoxicity) LOLPE PRE.
[21] abbreviates: post-emergence, 360 h, 250 g/ha, post-emergence, 15 DAA, visual assessment (100%=total damage, 0%=no damage), read-out: Post-emergence herbicidal activity (percentage phytotoxicity) ALOMY POST.
[22] abbreviates: pre-emergence, 480 h, 250 g/ha, pre-emergence, 20 DAA, visual assessment (100%=total damage, 0%=no damage), read-out: Pre-emergence herbicidal activity (percentage phytotoxicity) ALOMY PRE.
Where [23] appears, read: post-emergence, 360 h, 250 g/ha, post-emergence, 15 DAA, visual assessment (100%=total damage, 0%=no damage), read-out: Post-emergence herbicidal activity (percentage phytotoxicity) AVEFA POST.
Setting [24] is: pre-emergence, 480 h, 250 g/ha, pre-emergence, 20 DAA, visual assessment (100%=total damage, 0%=no damage), read-out: Pre-emergence herbicidal activity (percentage phytotoxicity) AVEFA PRE.
Setting [25] is: post-emergence, 360 h, 250 g/ha, post-emergence, 15 DAA, visual assessment (100%=total damage, 0%=no damage), read-out: Post-emergence herbicidal activity (percentage phytotoxicity) ECHCG POST.
The mark [26] stands for this setting: pre-emergence, 480 h, 250 g/ha, pre-emergence, 20 DAA, visual assessment (100%=total damage, 0%=no damage), read-out: Pre-emergence herbicidal activity (percentage phytotoxicity) ECHCG PRE.
The mark [27] stands for this setting: post-emergence, 360 h, 250 g/ha, post-emergence, 15 DAA, visual assessment (100%=total damage, 0%=no damage), read-out: Post-emergence herbicidal activity (percentage phytotoxicity) LOLPE POST.
Setting [28] is: pre-emergence, 480 h, 250 g/ha, pre-emergence, 20 DAA, visual assessment (100%=total damage, 0%=no damage), read-out: Pre-emergence herbicidal activity (percentage phytotoxicity) LOLPE PRE.

Consider `Cc1cc(-c2ccc(Br)cn2)cc(C)c1C1C(=O)CC(CC(=O)N2CCOCC2)C1=O` (stereo not shown) [Compound B299], for which the pest or weed control at 250 g/ha in test [1] (setting [5]) is 90%; in test [1] (setting [6]) it was 90%; in test [2] (setting [7]), 90%; in test [2] (setting [8]), 90%; in test [3] (setting [9]), 100%; in test [3] (setting [10]), 100%. Moreover, the pest or weed control at 250 g/ha in test [4] (setting [11]) and in test [4] (setting [12]) was 100% each time.

For the compound `Cc1cc(-c2ccc(F)cn2)cc(C)c1C1C(=O)CC(CC(=O)NCc2cccc(Cl)c2)C1=O` (stereo not shown) [Compound B401], the pest or weed control at 250 g/ha in test [1] (setting [13]) was determined as 90%; in test [1] (setting [14]) it was 80%; in test [2] (setting [15]), 100%; in test [2] (setting [16]) it was 70%; in test [3] (setting [17]) it was 100%; in test [3] (setting [18]), 80%. The pest or weed control at 250 g/ha in test [4] (setting [19]) and in test [4] (setting [20]) was 90% each time.

In the case of `Cc1cc(OCC(F)(F)F)cc(C)c1C1C(=O)CC(CC(=O)NCc2cccc(Cl)c2)C1=O` (stereo not shown) [Compound B204], the pest or weed control at 250 g/ha amounted to 100% in test [1] (setting [5]); 90% in test [1] (setting [6]); 100% in test [2] (setting [7]); 80% in test [2] (setting [8]); 100% in test [3] (setting [9]); 90% in test [3] (setting [10]). In addition, the pest or weed control at 250 g/ha in test [4] (setting [11]) and in test [4] (setting [12]) was 90% in each case.

As for `Cc1cc(-c2ccc(Cl)cn2)cc(C)c1C1C(=O)CC(CC(=O)NC/C=C/Cl)C1=O` (stereo not shown) [Compound B372], the pest or weed control at 250 g/ha in test [1] (setting [13]) was 90%; in test [1] (setting [14]) it was 90%; in test [2] (setting [15]), 100%; in test [2] (setting [16]), 100%; in test [3] (setting [17]) it was 100%; in test [3] (setting [18]), 100%. The pest or weed control at 250 g/ha stood at 90% in test [4] (setting [19]) and 100% in test [4] (setting [20]).

Turning to `Cc1cc(C)c(C2C(=O)CC(CC(=O)NC3CCOCC3)C2=O)c(C)c1` (stereo not shown) [Compound A17], the pest or weed control at 250 g/ha in test [1] (post-emergence, 360 h, Rate 250 g/ha, post-emergence, assessed visually 15 DAA, 100%=total damage, 0%=no damage, read-out: Post-emergence herbicidal activity (percentage phytotoxicity) ALOMY POST) is 80%; in test [1] (pre-emergence, 480 h, Rate 250 g/ha, pre-emergence, assessed visually 20 DAA, 100%=total damage, 0%=no damage, read-out: Pre-emergence herbicidal activity (percentage phytotoxicity) ALOMY PRE) it was 70%; in test [2] (post-emergence, 360 h, Rate 250 g/ha, post-emergence, assessed visually 15 DAA, 100%=total damage, 0%=no damage, read-out: Post-emergence herbicidal activity (percentage phytotoxicity) AVEFA POST), 70%; in test [2] (pre-emergence, 480 h, Rate 250 g/ha, pre-emergence, assessed visually 20 DAA, 100%=total damage, 0%=no damage, read-out: Pre-emergence herbicidal activity (percentage phytotoxicity) AVEFA PRE) it was 40%; in test [3] (post-emergence, 360 h, Rate 250 g/ha, post-emergence, assessed visually 15 DAA, 100%=total damage, 0%=no damage, read-out: Post-emergence herbicidal activity (percentage phytotoxicity) ECHCG POST), 80%; in test [3] (pre-emergence, 480 h, Rate 250 g/ha, pre-emergence, assessed visually 20 DAA, 100%=total damage, 0%=no damage, read-out: Pre-emergence herbicidal activity (percentage phytotoxicity) ECHCG PRE) it was 70%. The pest or weed control at 250 g/ha in test [4] (post-emergence, 360 h, Rate 250 g/ha, post-emergence, assessed visually 15 DAA, 100%=total damage, 0%=no damage, read-out: Post-emergence herbicidal activity (percentage phytotoxicity) LOLPE POST) was 80%; in test [4] (pre-emergence, 480 h, Rate 250 g/ha, pre-emergence, assessed visually 20 DAA, 100%=total damage, 0%=no damage, read-out: Pre-emergence herbicidal activity (percentage phytotoxicity) LOLPE PRE) it was 70%.

For `Cc1cc(-c2ncccc2F)cc(C)c1C1C(=O)CC(CC(=O)NC(C)(C)C)C1=O` (stereo not shown) [Compound B84], the pest or weed control at 250 g/ha in test [1] (setting [21]) amounted to 100%; in test [1] (setting [22]), 90%; in test [2] (setting [23]), 100%; in test [2] (setting [24]) it was 80%; in test [3] (setting [25]) it was 100%; in test [3] (setting [26]) it was 100%. For the same compound, the pest or weed control at 250 g/ha in test [4] (setting [27]) and in test [4] (setting [28]) was 100% throughout.

As for `Cc1cc(C)c(C2C(=O)CC(CC(=O)Nc3ccc(F)cc3F)C2=O)c(C)c1` (stereo not shown) [Compound B3], the pest or weed control at 250 g/ha in test [1] (setting [21]) was 0%; in test [1] (setting [22]) it was 60%; in test [2] (setting [23]), 10%; in test [2] (setting [24]), 50%; in test [3] (setting [25]), 70%; in test [3] (setting [26]), 90%. The pest or weed control at 250 g/ha in test [4] (setting [27]) is 80%; in test [4] (setting [28]), 90%.

For `Cc1ccc(CNC(=O)CC2CC(=O)C(c3c(C)cc(-c4ccc(Cl)cn4)cc3C)C2=O)cc1` (stereo not shown) [Compound B375], the pest or weed control at 250 g/ha is 40% in test [1] (setting [13]); 60% in test [1] (setting [14]); 70% in test [2] (setting [15]); 70% in test [2] (setting [16]); 100% in test [3] (setting [17]); 90% in test [3] (setting [18]). The pest or weed control at 250 g/ha in test [4] (setting [19]) and in test [4] (setting [20]) was 80% in each case.
